Measured values reported in the kinase profiling compilation of Christmann-Franck et al. (2016).

What was measured:
Experiment in all cases: KINOMEscan competition binding
Conditions in all cases: compound 10.0 µM
[1] = biological target: PTK2 (human) (UniProt Q05397)
[2] = biological target: CAMK2A (human) (UniProt Q9UQM7)
[3] = biological target: FGFR4 (human) (UniProt P22455)
[4] = biological target: TGFBR1 (human) (UniProt P36897)
[5] = biological target: EPHA6 (human) (UniProt Q9UF33)
[6] = biological target: PKMYT1 (human) (UniProt Q99640)
[7] = biological target: STK35 (human) (UniProt Q8TDR2)
[8] = biological target: GSK3A (human) (UniProt P49840)
[9] = biological target: AURKC (human) (UniProt Q9UQB9)
[10] = biological target: AKT2 (human) (UniProt P31751)
[11] = biological target: NLK (human) (UniProt Q9UBE8)
[12] = biological target: STK4 (human) (UniProt Q13043)
[13] = biological target: PIM3 (human) (UniProt Q86V86)
[14] = biological target: AKT3 (human) (UniProt Q9Y243)
[15] = biological target: LCK (human) (UniProt P06239)
[16] = biological target: STK24 (human) (UniProt Q9Y6E0)
[17] = biological target: RPS6KA2 KD1 (human) (UniProt Q15349)
[18] = biological target: MERTK (human) (UniProt Q12866)
[19] = biological target: MYLK4 (human) (UniProt Q86YV6)
[20] = biological target: STK32C (human) (UniProt Q86UX6)
[21] = biological target: EPHB4 (human) (UniProt P54760)
[22] = biological target: ACVR1 (human) (UniProt Q04771)
[23] = biological target: CSNK1G2 (human) (UniProt P78368)
[24] = biological target: NEK2 (human) (UniProt P51955)
[25] = biological target: MAP3K7 (human) (UniProt O43318)
[26] = biological target: IKBKB (human) (UniProt O14920)
[27] = biological target: TAOK3 (human) (UniProt Q9H2K8)
[28] = biological target: MAPK10 (human) (UniProt P53779)
[29] = biological target: MAP3K9 (human) (UniProt P80192)
[30] = biological target: CDK15 (human) (UniProt Q96Q40)
[31] = biological target: CAMKK2 (human) (UniProt Q96RR4)
[32] = biological target: SIK1 (human) (UniProt P57059)
[33] = biological target: MYO3A (human) (UniProt Q8NEV4)
[34] = biological target: FES (human) (UniProt P07332)
[35] = biological target: BMPR1B (human) (UniProt O00238)
[36] = biological target: CLK2 (human) (UniProt P49760)
[37] = biological target: CDK19 (human) (UniProt Q9BWU1)
[38] = biological target: AAK1 (human) (UniProt Q2M2I8)
[39] = biological target: NUAK2 (human) (UniProt Q9H093)
[40] = biological target: PIP5K1A (human) (UniProt Q99755)

Chain of MERTK (human) (Q12866 whole entry, looked up): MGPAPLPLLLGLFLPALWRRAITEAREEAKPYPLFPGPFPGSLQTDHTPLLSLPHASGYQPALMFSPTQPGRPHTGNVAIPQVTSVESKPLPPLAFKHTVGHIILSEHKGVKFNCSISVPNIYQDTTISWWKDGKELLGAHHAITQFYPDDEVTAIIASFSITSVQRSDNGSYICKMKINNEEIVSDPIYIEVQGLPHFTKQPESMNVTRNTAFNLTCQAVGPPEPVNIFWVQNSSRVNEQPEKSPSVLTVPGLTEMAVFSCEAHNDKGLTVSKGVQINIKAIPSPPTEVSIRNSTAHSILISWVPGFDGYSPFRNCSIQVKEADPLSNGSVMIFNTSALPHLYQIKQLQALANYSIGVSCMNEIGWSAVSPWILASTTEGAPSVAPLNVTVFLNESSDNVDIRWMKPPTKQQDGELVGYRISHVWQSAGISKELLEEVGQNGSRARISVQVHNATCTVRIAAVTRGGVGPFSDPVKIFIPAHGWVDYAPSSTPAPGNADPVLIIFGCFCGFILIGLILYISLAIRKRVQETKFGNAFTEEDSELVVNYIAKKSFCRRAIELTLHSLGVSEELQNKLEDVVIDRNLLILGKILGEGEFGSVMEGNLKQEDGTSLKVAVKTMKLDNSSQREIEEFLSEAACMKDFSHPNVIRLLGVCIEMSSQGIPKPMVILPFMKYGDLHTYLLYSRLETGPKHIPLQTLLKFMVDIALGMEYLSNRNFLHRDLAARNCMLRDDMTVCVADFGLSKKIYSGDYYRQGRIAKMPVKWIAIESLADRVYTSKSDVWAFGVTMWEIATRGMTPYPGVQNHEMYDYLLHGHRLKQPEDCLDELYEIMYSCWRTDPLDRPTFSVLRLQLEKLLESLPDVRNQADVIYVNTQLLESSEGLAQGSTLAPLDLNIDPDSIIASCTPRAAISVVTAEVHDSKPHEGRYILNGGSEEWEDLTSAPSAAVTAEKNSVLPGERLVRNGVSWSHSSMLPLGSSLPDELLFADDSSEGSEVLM
Chain of STK32C (human) (Q86UX6 whole entry, looked up): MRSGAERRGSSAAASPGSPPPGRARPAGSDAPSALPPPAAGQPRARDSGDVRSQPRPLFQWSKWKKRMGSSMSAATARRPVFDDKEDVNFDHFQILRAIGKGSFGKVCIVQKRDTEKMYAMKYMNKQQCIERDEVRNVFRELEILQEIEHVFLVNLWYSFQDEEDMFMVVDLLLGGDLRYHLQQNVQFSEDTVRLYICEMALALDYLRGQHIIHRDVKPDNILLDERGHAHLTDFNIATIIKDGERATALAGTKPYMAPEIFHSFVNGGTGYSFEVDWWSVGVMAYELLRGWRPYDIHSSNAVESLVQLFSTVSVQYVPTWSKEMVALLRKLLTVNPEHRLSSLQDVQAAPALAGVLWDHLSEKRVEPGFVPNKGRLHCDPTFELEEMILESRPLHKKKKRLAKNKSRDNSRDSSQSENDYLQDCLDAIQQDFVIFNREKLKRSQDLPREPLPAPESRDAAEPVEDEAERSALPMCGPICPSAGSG
Chain of STK4 (human) (Q13043 whole entry, looked up): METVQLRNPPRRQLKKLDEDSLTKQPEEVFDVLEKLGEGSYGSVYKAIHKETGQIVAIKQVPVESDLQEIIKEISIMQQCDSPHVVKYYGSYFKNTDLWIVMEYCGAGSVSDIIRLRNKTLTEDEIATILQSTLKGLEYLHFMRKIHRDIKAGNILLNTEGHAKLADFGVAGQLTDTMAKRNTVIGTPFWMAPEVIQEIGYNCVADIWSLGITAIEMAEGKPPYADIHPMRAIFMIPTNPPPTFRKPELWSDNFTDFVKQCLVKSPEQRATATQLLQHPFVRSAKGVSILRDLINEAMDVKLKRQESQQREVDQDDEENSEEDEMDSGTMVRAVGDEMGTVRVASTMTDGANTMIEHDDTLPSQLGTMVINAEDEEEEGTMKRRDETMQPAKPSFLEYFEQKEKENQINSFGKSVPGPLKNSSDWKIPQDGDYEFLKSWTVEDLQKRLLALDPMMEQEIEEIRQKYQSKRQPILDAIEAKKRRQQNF
Chain of AAK1 (human) (Q2M2I8 whole entry, looked up): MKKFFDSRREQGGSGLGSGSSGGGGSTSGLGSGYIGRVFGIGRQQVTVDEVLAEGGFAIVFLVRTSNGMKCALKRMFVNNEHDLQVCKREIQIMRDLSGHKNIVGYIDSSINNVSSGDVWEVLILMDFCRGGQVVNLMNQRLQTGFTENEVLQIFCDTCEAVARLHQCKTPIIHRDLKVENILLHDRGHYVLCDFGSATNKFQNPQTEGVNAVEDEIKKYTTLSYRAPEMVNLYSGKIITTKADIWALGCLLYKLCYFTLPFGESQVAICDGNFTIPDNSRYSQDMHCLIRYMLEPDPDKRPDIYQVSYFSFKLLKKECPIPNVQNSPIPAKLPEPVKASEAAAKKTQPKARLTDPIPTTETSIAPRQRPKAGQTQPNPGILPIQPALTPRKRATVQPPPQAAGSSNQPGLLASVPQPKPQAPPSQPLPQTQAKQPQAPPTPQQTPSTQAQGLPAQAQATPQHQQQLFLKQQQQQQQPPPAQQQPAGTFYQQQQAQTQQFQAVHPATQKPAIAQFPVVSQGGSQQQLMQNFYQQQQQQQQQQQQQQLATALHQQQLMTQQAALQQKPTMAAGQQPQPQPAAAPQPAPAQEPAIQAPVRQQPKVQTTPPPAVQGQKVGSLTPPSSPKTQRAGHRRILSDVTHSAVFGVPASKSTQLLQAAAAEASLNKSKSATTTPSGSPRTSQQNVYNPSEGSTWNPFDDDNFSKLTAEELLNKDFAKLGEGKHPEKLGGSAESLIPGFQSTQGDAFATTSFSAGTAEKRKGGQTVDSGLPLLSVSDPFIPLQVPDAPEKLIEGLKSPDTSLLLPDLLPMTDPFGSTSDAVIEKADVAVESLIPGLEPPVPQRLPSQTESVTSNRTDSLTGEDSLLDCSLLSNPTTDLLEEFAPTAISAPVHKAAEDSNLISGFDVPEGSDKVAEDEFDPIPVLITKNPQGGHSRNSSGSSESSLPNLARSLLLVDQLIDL
Chain of EPHB4 (human) (P54760 whole entry, looked up): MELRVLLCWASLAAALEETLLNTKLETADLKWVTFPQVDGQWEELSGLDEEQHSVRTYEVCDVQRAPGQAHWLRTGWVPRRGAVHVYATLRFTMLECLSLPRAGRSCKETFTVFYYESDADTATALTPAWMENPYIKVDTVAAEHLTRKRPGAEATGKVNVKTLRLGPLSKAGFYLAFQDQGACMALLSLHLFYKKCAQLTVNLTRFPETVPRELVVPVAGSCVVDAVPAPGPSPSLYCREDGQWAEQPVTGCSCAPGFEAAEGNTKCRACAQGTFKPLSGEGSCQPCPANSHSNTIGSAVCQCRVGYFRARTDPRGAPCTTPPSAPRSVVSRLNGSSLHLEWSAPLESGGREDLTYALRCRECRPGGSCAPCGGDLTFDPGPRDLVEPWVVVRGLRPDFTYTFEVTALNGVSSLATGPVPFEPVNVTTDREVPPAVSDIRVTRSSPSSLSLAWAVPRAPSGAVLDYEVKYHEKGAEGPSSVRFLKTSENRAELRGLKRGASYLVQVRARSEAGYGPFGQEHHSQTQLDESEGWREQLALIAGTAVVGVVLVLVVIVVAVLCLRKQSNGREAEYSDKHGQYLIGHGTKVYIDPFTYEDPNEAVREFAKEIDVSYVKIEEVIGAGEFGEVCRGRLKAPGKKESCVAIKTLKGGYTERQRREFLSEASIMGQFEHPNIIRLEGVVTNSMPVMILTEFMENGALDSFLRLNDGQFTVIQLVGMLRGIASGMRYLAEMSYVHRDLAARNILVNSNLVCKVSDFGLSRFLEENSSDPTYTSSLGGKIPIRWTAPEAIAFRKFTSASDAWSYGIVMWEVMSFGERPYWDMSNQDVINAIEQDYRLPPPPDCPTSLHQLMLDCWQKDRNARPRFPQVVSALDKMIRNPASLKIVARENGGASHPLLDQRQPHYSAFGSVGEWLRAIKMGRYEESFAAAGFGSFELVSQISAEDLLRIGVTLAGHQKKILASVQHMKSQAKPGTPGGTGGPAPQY
Chain of CAMK2A (human) (Q9UQM7 whole entry, looked up): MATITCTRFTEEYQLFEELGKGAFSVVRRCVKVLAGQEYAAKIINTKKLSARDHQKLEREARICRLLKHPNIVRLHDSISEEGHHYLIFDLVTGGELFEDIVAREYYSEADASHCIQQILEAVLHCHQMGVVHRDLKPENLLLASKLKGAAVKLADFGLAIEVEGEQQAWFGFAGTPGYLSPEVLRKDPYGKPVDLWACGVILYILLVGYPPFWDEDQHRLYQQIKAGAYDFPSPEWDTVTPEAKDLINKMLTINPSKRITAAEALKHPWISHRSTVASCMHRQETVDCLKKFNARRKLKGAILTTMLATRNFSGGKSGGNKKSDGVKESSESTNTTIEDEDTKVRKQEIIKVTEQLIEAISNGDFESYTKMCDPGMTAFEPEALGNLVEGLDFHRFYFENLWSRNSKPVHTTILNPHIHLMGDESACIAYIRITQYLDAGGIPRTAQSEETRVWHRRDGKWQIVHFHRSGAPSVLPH
Chain of CDK19 (human) (Q9BWU1 whole entry, looked up): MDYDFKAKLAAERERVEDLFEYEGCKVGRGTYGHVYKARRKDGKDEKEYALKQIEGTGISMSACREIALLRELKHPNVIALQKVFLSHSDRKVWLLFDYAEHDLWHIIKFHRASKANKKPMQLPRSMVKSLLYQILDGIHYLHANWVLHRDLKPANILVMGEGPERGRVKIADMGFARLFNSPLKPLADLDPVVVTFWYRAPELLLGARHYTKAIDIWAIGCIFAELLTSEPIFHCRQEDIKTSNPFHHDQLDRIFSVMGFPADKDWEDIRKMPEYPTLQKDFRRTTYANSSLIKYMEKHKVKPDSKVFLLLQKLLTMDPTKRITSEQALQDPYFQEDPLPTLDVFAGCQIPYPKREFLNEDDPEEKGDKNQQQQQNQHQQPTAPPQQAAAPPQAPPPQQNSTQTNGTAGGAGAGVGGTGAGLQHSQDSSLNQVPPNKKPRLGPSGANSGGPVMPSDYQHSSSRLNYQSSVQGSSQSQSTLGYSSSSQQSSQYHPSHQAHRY

Compound	kinase still bound, per cent of control [1] [%]	kinase still bound, per cent of control [2] [%]	kinase still bound, per cent of control [3] [%]	kinase still bound, per cent of control [4] [%]	kinase still bound, per cent of control [5] [%]	kinase still bound, per cent of control [6] [%]	kinase still bound, per cent of control [7] [%]	kinase still bound, per cent of control [8] [%]	kinase still bound, per cent of control [9] [%]	kinase still bound, per cent of control [10] [%]	kinase still bound, per cent of control [11] [%]	kinase still bound, per cent of control [12] [%]	kinase still bound, per cent of control [13] [%]	kinase still bound, per cent of control [14] [%]	kinase still bound, per cent of control [15] [%]	kinase still bound, per cent of control [16] [%]	kinase still bound, per cent of control [17] [%]	kinase still bound, per cent of control [18] [%]	kinase still bound, per cent of control [19] [%]	kinase still bound, per cent of control [20] [%]	also measured
O=C(NOC[C@H](O)CO)c1ccc(F)c(F)c1Nc1ccc(I)cc1F	85	100	54	100	94	80	83	90	45	100	77	100	100	89	88	88	100	100	100	100	kinase still bound, per cent of control [21]: 100%; kinase still bound, per cent of control [22]: 76%; kinase still bound, per cent of control [23]: 95%; kinase still bound, per cent of control [24]: 70%; kinase still bound, per cent of control [25]: 75%; kinase still bound, per cent of control [26]: 79%; kinase still bound, per cent of control [27]: 89%; kinase still bound, per cent of control [28]: 90%; kinase still bound, per cent of control [29]: 95%; kinase still bound, per cent of control [30]: 78%; kinase still bound, per cent of control [31]: 100%; kinase still bound, per cent of control [32]: 100%; kinase still bound, per cent of control [33]: 47%; kinase still bound, per cent of control [34]: 100%; kinase still bound, per cent of control [35]: 81%; kinase still bound, per cent of control [36]: 96%; kinase still bound, per cent of control [37]: 100%; kinase still bound, per cent of control [38]: 100%; kinase still bound, per cent of control [39]: 99%; kinase still bound, per cent of control [40]: 91%
COc1cc(C(=O)NC2CCN(C)CC2)ccc1Nc1ncc2c(n1)N(C1CCCC1)CCC(=O)N2C(C)C	100	100	100	100	100	100	100	100	100	100	100	100	100	100	100	100	100	34	100	100	kinase still bound, per cent of control [21]: 100%; kinase still bound, per cent of control [22]: 100%; kinase still bound, per cent of control [23]: 100%; kinase still bound, per cent of control [24]: 100%; kinase still bound, per cent of control [25]: 100%; kinase still bound, per cent of control [26]: 100%; kinase still bound, per cent of control [27]: 100%; kinase still bound, per cent of control [28]: 100%; kinase still bound, per cent of control [29]: 100%; kinase still bound, per cent of control [30]: 100%; kinase still bound, per cent of control [31]: 100%; kinase still bound, per cent of control [32]: 100%; kinase still bound, per cent of control [33]: 100%; kinase still bound, per cent of control [34]: 100%; kinase still bound, per cent of control [35]: 100%; kinase still bound, per cent of control [36]: 100%; kinase still bound, per cent of control [37]: 100%; kinase still bound, per cent of control [38]: 100%; kinase still bound, per cent of control [39]: 100%; kinase still bound, per cent of control [40]: 6.4%
